One assay has as its target DPP1 (Homo sapiens (Human), UniProt P53634). Kind of assay: DPP1 activity inhibition test on U937 cells. To be noted: substrate h-Gly-phe-AFC; for inhibition at 0.005 µM: U-937, 5 nM compound; for inhibition at 0.05 µM: U-937, 50 nM compound; for IC50: intracellular enzyme activity. It counts as cell-based. On the procedure: After incubation at 37° C. for 1 h, add h-Gly-phe-AFC (10 μL) to each well and start reaction.

The target in a further assay is rhCathepsin C/DPP1 (Homo sapiens (Human), UniProt P53634). Nature of the assay: Test for inhibition of DPP1 enzyme activity. Type of assay: biochemical. The note with it: recombinant human cathepsin C/DPP1; substrate Gly-Arg-AMC. The method, then:
Recombinant human cathepsin, rhCathepsin C/DPP1, purchased from R&D systems
Gly-Arg-AMC (hydrOCHloride), purchased from Cayman chemical
• 1) Preparation and handling of compounds: Accurately weigh the compound and dissolve it in […] of DMSO to prepare a […] of the bulk, which is further diluted as required. • 2) Screening test: Dilute recombinant human cathepsin rhCathepsin C/DPP1 and recombinant human cathepsin rhCathepsin L with an activating buffer solution, and incubate at 37° C. for 60 min. Add 4 μL of test compound to the white well of the 384-well plate. Add 4 μL of the enzyme mixture after incubation to the white wells. Block the 384-well plate and allow to stand at room temperature for 30 min, and add 8 μL of 2-fold diluted Gly-Arg-AMC (hydrochloride). Block the 384-well plate and allow to stand at room temperature for 2 h. Prepare 4× stop solution and add 4 μL stop solution to white wells. Read fluorescence data on the fluorescence meter Victor Nivo35. • 3) Data analysis:
[…] using Prism Graphpad 8.0.

Data on 14 compounds can be found in patent publication US20250101011A1, “PEPTIDYL NITRILE COMPOUND AND USE THEREOF” (SHANGHAI YIDIAN PHARMACEUTICAL TECHNOLOGY DEVELOPMENT CO., …, priority 2022, published 2025).

Sequence of DPP1 (P53634 25-463): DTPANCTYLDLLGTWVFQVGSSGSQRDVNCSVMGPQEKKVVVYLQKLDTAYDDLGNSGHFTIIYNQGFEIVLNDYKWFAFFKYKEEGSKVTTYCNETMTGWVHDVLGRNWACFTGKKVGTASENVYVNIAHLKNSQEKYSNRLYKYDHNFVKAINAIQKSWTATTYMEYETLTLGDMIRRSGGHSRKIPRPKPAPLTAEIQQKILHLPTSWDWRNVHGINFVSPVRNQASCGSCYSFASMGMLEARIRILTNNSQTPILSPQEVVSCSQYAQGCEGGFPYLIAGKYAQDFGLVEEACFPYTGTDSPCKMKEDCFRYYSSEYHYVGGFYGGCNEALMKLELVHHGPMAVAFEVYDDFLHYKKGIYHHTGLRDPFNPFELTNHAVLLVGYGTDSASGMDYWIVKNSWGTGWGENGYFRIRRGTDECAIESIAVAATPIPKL
Sequence of rhCathepsin C/DPP1 (P53634 25-134): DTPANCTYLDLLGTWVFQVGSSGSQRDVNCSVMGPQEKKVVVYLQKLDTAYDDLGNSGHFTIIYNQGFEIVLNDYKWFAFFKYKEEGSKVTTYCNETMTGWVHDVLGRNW
Sequence of rhCathepsin C/DPP1 (P53634 231-394): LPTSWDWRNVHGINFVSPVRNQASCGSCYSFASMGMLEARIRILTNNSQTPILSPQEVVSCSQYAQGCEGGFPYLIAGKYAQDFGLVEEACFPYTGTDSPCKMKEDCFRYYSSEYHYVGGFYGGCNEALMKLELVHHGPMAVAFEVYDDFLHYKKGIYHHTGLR
Sequence of rhCathepsin C/DPP1 (P53634 395-463): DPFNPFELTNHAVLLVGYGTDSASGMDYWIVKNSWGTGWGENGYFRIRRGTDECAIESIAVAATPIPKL

For `Cn1cc(-n2c(=O)oc3ccc(-c4ccc(C[C@@H](C#N)NC(=O)[C@@H]5CNCCCO5)c(F)c4)cc32)cn1` [Compound D63], on DPP1, the inhibition at 0.005 µM is 30 to 75%, the inhibition at 0.05 µM lay in the range of 75 to 100% and the IC50 was found to be 6.1 nM. Also, the IC50 on rhCathepsin C/DPP1 was found to be 1.7 nM.
On the same counts, the results for `CN1CC(n2c(=O)oc3ccc(-c4ccc(C[C@@H](C#N)NC(=O)[C@@H]5CNCCCO5)c(F)c4)cc32)C1` [Compound D67] are 30 to 75%, 75 to 100%, 32 nM and 0.18 nM.
On the same counts, the results for `CN1CC(n2c(=O)sc3ccc(-c4ccc(C[C@@H](C#N)NC(=O)[C@@H]5CNCCCO5)c(F)c4)cc32)C1` [Compound D70] are 30 to 75%, 75 to 100%, 13.2 nM and 0.58 nM.
For `CC1OC(=O)c2ccc(-c3ccc(C[C@@H](C#N)NC(=O)[C@@H]4CNCCCO4)c(F)c3)cc21` (stereo partly shown) [Compound D73], in that order: 30 to 75%, 75 to 100%, 3.8 nM and 2.5 nM.
At DPP1, `C[C@@H]1OC(=O)c2ccc(-c3ccc(C[C@@H](C#N)NC(=O)[C@@H]4CNCCCO4)c(F)c3)cc21` [Compound D74] yielded an inhibition at 0.005 µM of 30 to 75%, an inhibition at 0.05 µM of 75 to 100% and an IC50 of 8 nM. In addition, the IC50 at rhCathepsin C/DPP1 amounted to 2.9 nM.
On DPP1, `C[C@H]1OC(=O)c2ccc(-c3ccc(C[C@@H](C#N)NC(=O)[C@@H]4CNCCCO4)c(F)c3)cc21` [Compound D75] gave an inhibition at 0.005 µM of 30 to 75%, an inhibition at 0.05 µM of 75 to 100% and a half-maximal inhibitory concentration (IC50) of 3.8 nM. On rhCathepsin C/DPP1, the IC50 is 2.3 nM.
As for `N#C[C@H](Cc1ccc(-c2ccc3c(c2)COC3=O)cc1F)NC(=O)[C@@H]1CNCC2(CC2)CO1` [Compound D78], on DPP1, the inhibition at 0.005 µM was in the range of 30 to 75%, the inhibition at 0.05 µM lay in the range of 75 to 100% and the IC50 came to 2.9 nM. Further, on rhCathepsin C/DPP1, the IC50 amounted to 0.72 nM.
Turning to `CC1CNC[C@@H](C(=O)N[C@H](C#N)Cc2ccc(-c3ccc4oc(=O)n(C)c4c3)cc2F)OC1` (stereo partly shown) [Compound D85], on DPP1, the inhibition at 0.005 µM is 30 to 75%, the inhibition at 0.05 µM fell in the range of 75 to 100% and the IC50 stood at 3 nM. For the same compound, the IC50 at rhCathepsin C/DPP1 is 3.2 nM.
For `N#C[C@H](Cc1ccc(-c2ccc3c(c2)C2(CCN(C4COC4)CC2)OC3=O)cc1F)NC(=O)[C@@H]1CNCCCO1` [Compound D92], in that order: 30 to 75%, 75 to 100%, 5.9 nM and 0.32 nM.
For the compound `N#C[C@H](Cc1ccc(-c2ccc3sc(=O)n(C4COC4)c3c2)cc1F)NC(=O)[C@@H]1CNCCCO1` [Compound D106], the IC50 amounted to 4.3 nM at DPP1 and 1.36 nM on rhCathepsin C/DPP1.
Consider `CN1CCC(=O)c2ccc(-c3ccc(C[C@@H](C#N)NC(=O)[C@@H]4CNCCCO4)c(F)c3)cc21` [Compound D118], for which the IC50 against DPP1 was determined as 2.1 nM; on rhCathepsin C/DPP1, 1.6 nM.
On the same counts, the results for `CCN1CCC(=O)c2ccc(-c3ccc(C[C@@H](C#N)NC(=O)[C@@H]4CNCCCO4)c(F)c3)cc21` [Compound D120] are 3.42 nM and 2.3 nM.
On to `C[C@H]1OC(=O)c2ccc(-c3ccc(C[C@@H](C#N)NC(=O)[C@@H]4CNC[C@@H](F)CO4)c(F)c3)cc21` [Compound D123], for which the values for the IC50 on DPP1 and on rhCathepsin C/DPP1 were 15 nM and 1.4 nM, respectively.
On the same counts, the results for `[2H]C([2H])([2H])[C@H]1OC(=O)c2ccc(-c3ccc(C[C@@H](C#N)NC(=O)[C@@H]4CNCCCO4)c(F)c3)cc21` [Compound D127] are 4.6 nM and 4.2 nM.

As usually defined, the inhibition is the percentage by which the read-out fell short of the control. Lower therefore signals a weak effect. As a reminder, the IC50 is the concentration that inhibits the measured activity by half.
